# In patent EP0037049A1, “Biphenylyl-imidazolylethane derivatives, process for their preparation and medicaments containing them” (BAYER AG, priority 1980, dated 1981):
# Tested on: Dermatophyten, Schimmelpilze, Hefen
# Assay: Antifungal in-vitro activity, serial dilution test
# Format: cell-based
# Conditions: incubation at 28°C, 24 h for yeasts, 96 h for dermatophytes and moulds, activity stated to be superior to prior-art compounds (A), (B), (C) and (D)
# Experimental: Die in-vitro-Prüfung wurde im Reihenverdünnungstest mit Keiminokula von durchschnittlich […] Substrat durchgeführt. Als Nährmedium dienten • a) für Dermatophyten und Schimmelpilze: Sabourand's milieu d'epresive • b) für Hefen: • Isotonic Sensitest-Broth von Oxid.
# Die Bebrütungstemperatur betrug 28°C; Bebrütungsdauer war 24 Stunden bei Hefen und 96 Stunden bei Dermatophyten und Schimmelpilzen.
row,Structure (SMILES),Antimykotische in-vitro-Wirksamkeit (Wirkung)
1,Clc1ccccc1C(Cn1ccnc1)c1ccc(-c2ccccc2)cc1 (stereo not shown) [Beispiel 5],sehr gute Wirkung
2,Fc1ccccc1C(Cn1ccnc1)c1ccc(-c2ccccc2)cc1 (stereo not shown) [Beispiel 6],sehr gute Wirkung
3,Clc1cccc(C(Cn2ccnc2)c2ccc(-c3ccccc3)cc2)c1 (stereo not shown) [Beispiel 7],sehr gute Wirkung
4,Clc1ccc(-c2ccc(C(Cn3cncn3)c3ccccc3Cl)cc2)cc1 (stereo not shown) [Beispiel 8],sehr gute Wirkung
